Data taken from patent publication US12070033B1, “Aquatic herbicide having non-herbicidal functional ingredients” (SePRO Corporation, priority 2019, dated 2024).

System: hydrilla
Test: Total phosphorus extracted from hydrilla and from the water in which it was located
Assay type: in vivo, Hydrilla verticillata
Conditions: 5 ppm dipotassium endothall
Experimental: Turning now to FIG. 7, treatment of aquatic weeds with the aquatic herbicidal formulation results in both an increased release of nutrients, such as phosphorus, from treated plants and a reduction from the water column of those nutrients released. In one experiment, total phosphorus was extracted from hydrilla and from water in which the hydrilla was located. In one test group, the hydrilla was untreated (control group). In a second test group, the hydrilla was treated with Formulation 1 (5 ppm dipotassium endothall) and, in a third test group, the hydrilla was treated with Aquathol® K (5 ppm dipotassium endothall). In the untreated control group, the plants remained healthy and pulled available phosphorus from the water column, resulting in a lower amount of phosphorus in the water (indicated by the darker shading at the bottom of each column) as compared to groups treated with Formulation 1 and Aquathol® K (as indicated by the lighter shading at the top of each column).

**Q.** O=C([O-])[C@@H]1[C@H](C(=O)[O-])[C@H]2CC[C@@H]1O2.[K+].[K+] [dipotassium endothall] was tested. Which “plant's phosphorus released into the water” value did it give?
**A.** approximately 27%
